We go through 25 compounds from patent publication US4675428A, “Sulfonic acid ester derivatives useful as antilipemic agents” (Taiho Pharmaceutical Company, Limited, priority 1982, dated 1987).

The target in one series is chymotripsin (Bos taurus, UniProt P00766). Briefly: Chymotripsin inhibiting activity (ATEE hydrolysis). Particulars: 1 × 10^-4 mole; pH 8.0, 37° C., ATEE substrate. The class given is biochemical. How it is done:
2. Chymotripsin inhibiting activity
An enzyme solution (0.1 unit of chymotripsin) is added to a specified quantity of buffer solution containing 0.1 mole of trishydrochloric acid (pH 8.0). To the mixture is further added a 50% ethanol solution of the compound of the invention, and the resulting mixture is reacted at 37° C. for 20 minutes.
On completion of the reaction, 10 micromoles of N-acetyl-L-thyrosine (ATEE) serving as a substrate is added to the mixture, and the resulting mixture is reacted at 37° C. for 30 minutes. After the completion of the reaction, the amount of remaining ATEE is determined by the same hydroxamic acid method as used in the method of determining the esterase inhibiting activity. The percent chymotripsin inhibition is given by
Percent inhibition=(A-B/A)×100
wherein A is the amount of hydrolyzed esters in the reaction system not containing the compound of the invention, and B is the amount of hydrolyzed esters in the reaction system containing the present compound.

Series [1] addresses esterase solution prepared from a purified microsome fraction of the liver of a rat. Briefly: Esterase inhibiting activity (hydrolysis of methyl butyrate). It counts as biochemical. Particulars: pH 8.0, 37° C., 60 min. How it is done: 1. Esterase inhibiting activity
A 10 micromole quantity of methyl butyrate in a 50% ethanol solution is added as a substrate to a specified amount of buffer solution containing 0.1 mole of trishydrochloric acid (pH 8.0). To the mixture is further added a 50% ethanol solution of the compound of the invention, immediately followed by addition of an esterase solution prepared from a purified microsome fraction of the liver of a rat (adjusted to hydrolyze 9 micromoles of methyl butyrate at 37° C. in one hour) as an enzyme solution. The mixture is reacted at 37° C. for 60 minutes.
After the reaction, alkaline hydroxylamine is added to the mixture to form a hydroxamic acid derivative of methyl butyrate, and a ferric salt is added to the derivative. The resulting red color is colorimetrically determined (at a wavelength of 540 nm) to determine the amount of remaining methyl butyrate. The esterase inhibiting ratios of the present compound at (at least three) different concentrations are plotted as ordinate, and the logarithms of the concentrations as abscissa to obtain a line, which gives the 50% inhibition concentration (IC50).

A further series has as its system plasma triglycerides. As to the kind of experiment: Antilipemic effect (plasma triglycerides after oral olive oil). It counts as in vivo, male Wistar rats. The conditions noted are these: Wistar rats, oral in olive oil (100 mg in 5 ml, 5 ml/kg), plasma 2 h after dosing. How it is done:
Seven-week-old male Wistar rats weighing 200 to 220 g are used, 5 rats in each group.
The compound of the invention (100 mg) is dissolved in 5 ml of olive oil. The olive oil containing the compound is orally given to the rat with a probe at a dose of 5 ml/kg. Two hours thereafter, 6 ml of whole blood is withdrawn from the descending aorta of the rat under ether anesthesia with a syringe containing heparin. The blood is centrifuged at 5° C. and 3000 r.p.m. to obtain the plasma.
The plasma collected is used for determining the triglycerides content, using a triglycerides measuring kit (trade mark "Triglycerides-B Test Wako," product of Wako Junyaku Co., Ltd., Japan). Olive oil containing no compound is similarly given to a control group, while no treatment is conducted for a normal group. The triglycerides content in the plasma is also determined for these groups in the same manner as is the case with the test groups.
The percent hyperlipidemia inhibition achieved by the present compound is given by
Percent inhibitaion=(A-C/A-B)×100
in which A is the triglycerides content of the control group, B is the triglycerides content of the normal group, and C is the triglycerides content of the group to which the present compound is given.

Series [2] in a line: Heat-stability on storage at 40° C. (HPLC content of undecomposed compound). The class given is physicochemical. Particulars: for remaining at 288 h / remaining at 360 h: solid storage; for remaining at 288 h: 12th day; for remaining at 360 h: 15th day; for Content (%) Start: start (initial content). How it is done: The following compounds (200 mg each) were placed in transparent sample bottles, and left to stand at a constant temperature of 40° C. for 15 days. Thereafter, they were checked for the heat-stability by determining the change of content of the compounds which remained not decomposed as of the 12th and 15th day. The content was measured by high performance liquid chromatography using a 60:40 mixture of acetonitrile and water as an eluent, and the percentages of the content of the undecomposed compound were calculated based on the initial content.

In general, IC50 refers to the midpoint of a concentration-inhibition curve. A lower IC50 goes with inhibition by little substance. On to `CC[C@H]1CC[C@@](CC)(C(=O)COS(=O)(=O)c2ccccc2)CC1` [Compound 1], for which the “Chymotripsin inhibition (%)” value at chymotripsin was 12%. This compound gave an IC50 in series [1] of 35000 nM.
For `CC[C@H]1CC[C@](CC)(C(=O)COS(=O)(=O)c2ccccc2)CC1` [Compound 3], on chymotripsin, the “Chymotripsin inhibition (%)” value is 25%. In addition, in the series on plasma triglycerides, the “Antilipemic TG inhibition (%)” value worked out at 47.1%. In series [1], this compound yielded a half-maximal inhibitory concentration (IC50) of 340 nM.
On to `CC(C)[C@H]1CC[C@@](C)(C(=O)COS(=O)(=O)c2ccccc2)CC1` [Compound 5], for which the “Chymotripsin inhibition (%)” value at chymotripsin amounted to 14%. Moreover, the “Antilipemic TG inhibition (%)” value in the series with plasma triglycerides turned out to be 49.0%. Besides, it took 33000 nM to reach half-maximal inhibition in series [1] (IC50).
In the same order, the values of `CC(C)[C@H]1CC[C@](C)(C(=O)COS(=O)(=O)c2ccccc2)CC1` [Compound 7] are 26%, 72.0% and 16 nM.
Consider `Cc1ccc(S(=O)(=O)OCC(=O)C2(C)CCC(C(C)C)CC2)cc1` (stereo not shown) [Compound 8], for which the “Chymotripsin inhibition (%)” value on chymotripsin worked out at 35%. This compound registered a concentration for half-maximal inhibition (IC50) in series [1] of 560 nM.
`CC(C)C[C@H]1CC[C@](C)(C(=O)COS(=O)(=O)c2ccccc2)CC1` [Compound 11]: the “Chymotripsin inhibition (%)” value at chymotripsin worked out at 15%. For the same compound, in the series with plasma triglycerides, the “Antilipemic TG inhibition (%)” value was 70.5%. The half-inhibitory concentration (IC50) in series [1] amounted to 2200 nM.
In the same order, the values of `CC1(C)CCC(C(=O)COS(=O)(=O)c2ccccc2)CC1` [Compound 16, 1-(benzenesulfonyloxy)-2-(4,4-dimethylcyclohexyl)-2-ethanone] are 71%, 77.5% and 5.8 nM.
Turning to `Cc1cc(C)c(S(=O)(=O)OCC(=O)C2CCC(C)(C)CC2)c(C)c1` [Compound 17], the half-maximal inhibitory concentration (IC50) in series [1] amounted to 2 nM.
Same read-out and setting: with `COc1ccc(S(=O)(=O)OCC(=O)C2CCC(C)(C)CC2)cc1` [Compound 18] the figure was 2500 nM.
Take `CCCC1(C)CCC(C(=O)COS(=O)(=O)c2ccccc2)CC1` (stereo not shown) [Compound 19]: at chymotripsin, the “Chymotripsin inhibition (%)” value was found to be 34%. For the same compound, in the series on plasma triglycerides, the “Antilipemic TG inhibition (%)” value was 95.4%. The compound further yielded an IC50 in series [1] of 4.2 nM.
In the same order, the values of `O=C(COS(=O)(=O)c1ccccc1)C1CCC2(CCCC2)CC1` [Compound 22] are 41%, 84.2% and 22 nM.
`Cc1ccc(S(=O)(=O)OCC(=O)C2CCC3(CCCC3)CC2)cc1` [Compound 23] registered a 50% inhibitory concentration (IC50) in series [1] of 3000 nM. This counts as single-digit micromolar.
For the compound `O=C(COS(=O)(=O)c1ccccc1)C1CCC2(CCCCC2)CC1` [Compound 24], the “Chymotripsin inhibition (%)” value on chymotripsin is 61%. For the same compound, the “Antilipemic TG inhibition (%)” value in the series with plasma triglycerides amounted to 93.5%. For the same compound, it took 5.4 nM to reach half-maximal inhibition in series [1] (IC50).
Usually amount remaining stands for what is left of the initial amount, in per cent. Higher therefore signals less turnover. In the case of `CC(C)[C@H]1CC[C@H](C(=O)COS(=O)(=O)c2ccccc2)CC1` [Compound C-1], in series [2], the fraction remaining at 288 h was 92%, the fraction remaining at 360 h is 14% and the “Content (%) Start” value was 100%.
In the same order, the values of `Cc1ccc(S(=O)(=O)OCC(=O)[C@H]2CC[C@H](C(C)(C)C)CC2)cc1` [Compound C-2] are 93%, 16% and 100%.
The corresponding values for `Cc1cc(C)c(S(=O)(=O)OCC(=O)C2CCC(C(C)C)CC2)c(C)c1` (stereo not shown) [Compound C-3] are 95%, 40% and 100%.
As for `CCOc1ccc(S(=O)(=O)OCC(=O)C2CCC(CC)CC2)cc1` (stereo not shown) [Compound C-4], in series [2], the amount remaining at 288 h worked out at 91%, the share remaining at 360 h amounted to 15% and the “Content (%) Start” value was 100%.
The corresponding values for `O=C(COS(=O)(=O)c1ccccc1)C1CCCCC1` [Compound C-5] are 85%, 15% and 100%.
The corresponding values for `CCOc1ccc(S(=O)(=O)OCC(=O)C2CCCCC2)cc1` [Compound C-6] are 80%, 14% and 100%.
The corresponding values for `Cc1cc(C)c(S(=O)(=O)OCC(=O)C2CCCCC2)c(C)c1` [Compound C-7] are 95%, 20% and 100%.
As for `O=C(CCC1CCCCC1)COS(=O)(=O)c1ccccc1` [Compound C-8], in series [2], the fraction remaining at 288 h is 72%, the fraction remaining at 360 h came to 19% and the “Content (%) Start” value was determined as 100%.
In the same order, the values of `Cc1cc(C)c(S(=O)(=O)OCC(=O)C2(C)CCC(C(C)C)CC2)c(C)c1` (stereo not shown) [Compound T-6] are 100%, 100% and 100%.
The corresponding values for `CC(C)[C@H]1CC[C@](C)(C(=O)COS(=O)(=O)c2ccccc2)CC1` [Compound T-7] are 100%, 100% and 100%.
The corresponding values for `Cc1ccc(S(=O)(=O)OCC(=O)C2(C)CCC(C(C)C)CC2)cc1` (stereo not shown) [Compound T-8] are 100%, 100% and 100%.
Regarding `COc1ccc(S(=O)(=O)OCC(=O)C2(C)CCC(CC(C)C)CC2)cc1` (stereo not shown) [Compound T-13], in series [2], the share remaining at 288 h was 100%, the fraction remaining at 360 h is 100% and the “Content (%) Start” value is recorded as 100%.
